In brackets after ≈: the same amount, converted by molar mass. Marks after values point to notes of the source that are not given here.
Experiments:
[1] = test system: human sperm (semen samples); experiment: Spermicidal activity in the Sander-Cramer test; format: cell-based; conditions: for Highest Spermicidal Dilution (1/X) / MEC / MEC (Minimum Effective Concentration): n=10; for MEC (Minimum Effective Concentration per Sander-Cramer assay): Table 4, dH2O
Protocol: Semen samples were collected from healthy human volunteers: only specimens with >60×10^6 motile sperm/mL and >50% motility were used. Two-fold serial dilutions of the compounds were prepared in 0.9% saline and incubated with semen samples for 20 seconds. Sperm were assessed under the microscope and positive dilutions (i.e. all observed sperm were immotile) were further incubated at 37° C. for 1 hour with 2 vol. of buffer, and re-examined for sperm motility. If no motile sperm were seen, the positive score was maintained. The Minimum Effective Concentration (MEC) for the compound was calculated using the highest sperm immobilizing dilution and its initial concentration.

Candida albicans = experiment: Inhibition of growth of Candida albicans (MIC); format: cell-based; conditions: for MIC: C. albicans, 4 days at 28° C.
Protocol: The Minimum Inhibitory Concentrations (MICs) of Z-10-Z-15 were measured by determining the inhibition of growth of C. albicans in a solution of mineral salts plus yeast extract (See Standard Practice for Determining Resistance of Synthetic Polymeric Material to Fungi. American Society for Testing and Materials (ASTM) Standards on Materials and Environmental Microbiology, 1st Ed., 1987), and amended with glucose (10 g/L) and yeast extract (1 g/L). An aliquot (250 μl) of sterile medium was dispensed into each well of a 96-well microplate. Stock solutions were prepared by dissolving test compounds in 50% (v/v) aqueous dimethylsulfoxide (DMSO). Each well (plus controls) was then inoculated with 5 μl of a suspension of C. albicans. The suspension was then adjusted to provide OD686=0.28. This density contains ca. 2.5×10^7 colony forming units (CFU)^2/mL. The microplates were incubated in the dark for 4 days at 28° C.

HIV-1 (RF strain) = experiment: In vitro anti-HIV cell-free inactivation assay; format: cell-based; conditions: for reduction of infective viral titer: 2 minutes exposure
Protocol: The assay for in vitro anti-HIV activity followed the previously described procedure (Resnick et al., 1990). An infectious suspension of HIV-1 (RF strain, NIH 1983) was exposed to the compounds for 2 minutes. Immediately after, the mixture was 10-fold serially diluted with medium to terminate compound effect, and the dilutions were incubated with MT-2 target cells at 37° C. The cells were maintained in growth medium at 37° C. for 6 days. HIV-induced cytopathology (syncytium formation) was assessed on day 6 after infection, as was cell viability.

[2] = test system: sperm penetration in bovine cervical mucus; experiment: Cervical mucus biodiffusion, Double-End test; conditions: testing concentration ten fold MEC; 60 minutes incubation; n=12
Protocol: The cervical mucus Biodiffusion properties of (R)Z-14 and (R)-Z-15 analogues were tested in comparison to that of N-9 using the Double-End test (Doncel. 1994). In this test, compound solutions (in 0.9% saline) were incubated for 60 minutes with a 7 cm capillary tube containing bovine cervical mucus (Penetrak®, Biochem Immuno System, Norwell, Mass.) opened at one end. After such incubation, the tubes' open end, which had been in contact with the compound, was sealed. Subsequently, the tubes were cut open at 20 mm from the initial opening, inverted, and immersed in semen so as to allow sperm penetration in an opposite direction to that of the compound diffusion. Sperm cease penetration when they encounter a bioactive concentration of the test compound. Thus, the lower the sperm penetration, the greater the compound's biodiffusion. In addition, the spermicidal activity of the analogues was tested again.

[3] = Effect of time in CMC formulation on activity and chemical integrity; format: physicochemical
Protocol: Residual samples of (R)-Z-15 in the CMC formulation were analyzed with ^1H nuclear magnetic resonance (NMR) and Matrix Assisted Laser Desorption Ionization Time of Flight Mass Spectroscopy (MALDI-TOF). For the NMR analyses, samples of the hydrogel were dissolved in D2O. For the MALDI-TOF analysis a sample of the hydrogel was placed in the chamber and subjected to the laser. The MALDI-TOF results are depicted in FIG. 1.

spermatozoa = experiment: Sperm motility inhibition dose-response; format: cell-based; conditions: FIG. 2
Protocol: The ability of Z-15-mucic acid blends [(R)-Z-15-MA and rac-Z-15-MA] to inhibit sperm motility was tested in comparison to (R)-Z-15 alone or N-9. The results are depicted in FIG. 2.

pH of sample = format: physicochemical
From the text: The recent disclosure (Fassi, U.S. Pat. No. 5,952.379) of stable, non-hygroscopic salts of L-(-)[(R)-]acylcamitine and alkanoyl L-(-)-[(R)-]acylcarnitines with mucic acid (MA) (2:1) prompted the exploration of the effects of blending MA with Z-15. Blending reduced the pH of a sample of Z-15 from about 9-10 to about 3.5-3.8. The blends contained only 67% Z-15 as an active ingredient compared to pure Z-15 (100%).

[4] = Table 5, initial conc. 10 mg/ml in dH2O
[5] = Table 6, initial conc. 10 mg/mL in dH2O
[6] = Table 1, initial conc. 10 mg/ml in dH2O

MIC (Candida albicans) [µg/mL] | Compound | Highest Spermicidal Dilution (1/X) [1, 4] | MEC [1, 4] [mg/mL] | Highest Spermicidal Dilution (1/X) [1, 6] | MEC (Minimum Effective Concentration) [1, 6] [mg/mL] | reduction of infective viral titer (HIV-1 (RF strain); 0.32 mg/mL) [log units] | reduction of infective viral titer (HIV-1 (RF strain); 1 mg/mL) | reduction of infective viral titer (HIV-1 (RF strain); 3.2 mg/mL) | reduction of infective viral titer (HIV-1 (RF strain); 10 mg/mL) | reduction of infective viral titer (HIV-1 (RF strain); 0.032 mg/mL) [log units] | reduction of infective viral titer (HIV-1 (RF strain); 0.1 mg/mL) [log units] | MEC (Minimum Effective Concentration per Sander-Cramer assay) [1] [mg/mL] | DET % control (test sperm penetration compared to control) [2] [% control] | also measured
>100 | CCCCCCCCCCC[C@@]1(O)C[N+](C)(C)C[C@@H](CC(=O)[O-])O1 [Compound Z-11] |  |  | 7.6 ± 0.0 1/X | 1.4 ± 0.1 | 0.8 | 2.0 log units | 2.7 log units | 4.7 log units |  |  |  |  | 
80 to 100 | CCCCCCCCCCCC[C@@]1(O)C[N+](C)(C)C[C@@H](CC(=O)[O-])O1 [Compound Z-12] |  |  | 27.2 ± 2.3 1/X | 0.407 ± 0.7 | 2.0 | 2.8 log units | ≧3.5 log units | ≧4.0^ log units | 0.0 | 0.3 |  |  | 
40 (≈ 108 µM) | CCCCCCCCCCCCC[C@@]1(O)C[N+](C)(C)C[C@@H](CC(=O)[O-])O1 [Compound Z-13] |  |  | 48.0 ± 5.1 1/X | 0.235 ± 0.025 | 2.7 | 3.3 log units | 3.5 log units | 3.5 log units | 0.5 | 1.5 |  |  | 

Continued, compound first:

Compound | MIC (Candida albicans) [µg/mL] | Highest Spermicidal Dilution (1/X) [1, 4] | MEC [1, 4] [mg/mL] | Highest Spermicidal Dilution (1/X) [1, 6] | MEC (Minimum Effective Concentration) [1, 6] [mg/mL] | reduction of infective viral titer (HIV-1 (RF strain); 0.32 mg/mL) [log units] | reduction of infective viral titer (HIV-1 (RF strain); 1 mg/mL) | reduction of infective viral titer (HIV-1 (RF strain); 3.2 mg/mL) | reduction of infective viral titer (HIV-1 (RF strain); 10 mg/mL) | reduction of infective viral titer (HIV-1 (RF strain); 0.032 mg/mL) [log units] | reduction of infective viral titer (HIV-1 (RF strain); 0.1 mg/mL) [log units] | MEC (Minimum Effective Concentration per Sander-Cramer assay) [1] [mg/mL] | DET % control (test sperm penetration compared to control) [2] [% control] | also measured
CCCCCCCCCCCCCCCC1(O)C[N+](C)(C)CC(CC(=O)[O-])O1 (racemic) [(rac)-Z-15] |  | 115.2 ± 23.6 1/X | 0.117 ± 0.016 |  |  |  |  |  |  |  |  |  |  | spermicidal activity, in words ([1]; Table 5): slightly more active than the two enantiomers and significantly more active than N-9; spermicidal activity, in words ([1]; Table 6): activity equal to that of the R and S enantiomers; Highest Spermicidal Dilution (1/X) [1, 5]: 108.80 ± 19.20 1/X; MEC [1, 5]: 0.113 mg/mL
CCCCCCCCCC[C@@]1(O)C[N+](C)(C)C[C@@H](CC(=O)[O-])O1 [Compound Z-10] | >100 |  |  | 4.8 ± 0.5 1/X | 2.3 ± 0.2 | 0.8 | 1.0 log units | 2.8 log units | ≧4.0^a log units |  |  |  |  | 
CCCCCCCCCCCCCC[C@@]1(O)C[N+](C)(C)C[C@@H](CC(=O)[O-])O1 [Compound Z-14] | 10 (≈ 25.9 µM) |  |  | 102.4 ± 18.5 1/X | 0.121 ± 0.014 | 2.8 | 3.5 log units | ≧4.0 log units | ≧4.0^ log units | 0.5 | 1.5 | 0.091 ± 0.008 | 18.0 ± 1.2 | spermicidal activity (MEC), in words ([1]; Table 1): slightly lower than that of N-9; C. albicans growth inhibition, in words (Candida albicans): acceptable activity
CCCCCCCCCCCCCCC[C@@]1(O)C[N+](C)(C)C[C@@H](CC(=O)[O-])O1 [Compound Z-15] | 2 (≈ 5 µM) | 73.6 ± 9.1 1/X | 0.156 ± 0.019 | 102.4 ± 9.9 1/X | 0.109 ± 0.012 | 2.7 | 3.2 log units | 3.8 log units | ≧4.0^ log units | 0.3 | 1.5 | 0.104 ± 0.011 | 16.0 ± 0.0 | spermicidal activity (MEC), in words ([1]; Table 1): slightly lower than that of N-9; C. albicans growth inhibition, in words (Candida albicans): highest activity; chemical integrity in formulation (1H NMR, MALDI-TOF) ([3]; six months in the CMC formulation): remained unchanged chemically; spermicidal activity after time in formulation ([3]; three months in the CMC formulations): still active as a spermicide after three months; inhibition of sperm motility at concentrations below the MEC, in words (spermatozoa): superior ability of Z-15 over N-9; pH of a sample (pH of sample): 9-10
Nonoxynol-9 [Compound N-9, reference compound] |  | 33.6 ± 3.5 1/X | 0.329 ± 0.035 | 83.2 ± 18.2 1/X | 0.144 ± 0.011 | 3.5 | ≧4.0^ log units |  |  | 0.5 | 2.2 | 0.144 ± 0.011 | 17.5 ± 0.7 | Highest Spermicidal Dilution (1/X) [1, 5]: 73.6 ± 8.4 1/X; MEC [1, 5]: 0.156 mg/mL; anti-HIV activity, in words (HIV-1 (RF strain); Table 2): slightly more active than these compounds
